From patent publication US8299097B2, “Methods for treating inflammatory disorders” (The Brigham and Women's Hospital, Inc., priority 2008, dated 2012)

What was measured:
BALB/c mice = assay: Cys-LT amplification of pulmonary inflammation in OVA sensitized, low-dose OVA challenged BALB/c mice; assay type: in vivo, mouse; conditions: intranasal cys-LT 12 h before each 0.1% OVA challenge
Method: FIG. 3. LTE4-mediated amplification of allergen-induced pulmonary inflammation. 3A. BAL fluid total cell counts (top) with percentages (middle) and total numbers (bottom) of eosinophils. Mice were sensitized twice with alum-precipitated ovalbumin (OVA). […] A separate sensitized group of mice were treated with 1% OVA as a positive control. 3B. Quantitative analysis if pulmonary inflammation, measured as the number of bronchovascular bundles with cellular infiltrates per 15 such bundles per mouse. 3C. Representative fields of H & E-stained lungs from mice from the indicated experimental groups. 3D. Morphometric analysis of goblet cell metaplasia, measured as the numbers of PAS-positive cells per mm of bronchial basal lamina. 3E. Representative PAS stains showing goblet cells (arrows). Results in 3A, 3B, and 3D are mean±SEM from 8-9 mice per group.
Thus, it was sought to determine whether either cys-LT amplified pulmonary inflammation induced by the inhalation of low-dose allergen in sensitized mice. Two weeks after sensitization with chicken egg ovalbumin (OVA) by intraperitoneal injection, BALB/c mice received inhalation challenges on three consecutive days with low-dose OVA (0.1%) for 30 minutes. Twelve hours before each challenge, the mice received intranasal LTD4, LTE4, or a buffer control. A cohort of mice treated with 1% OVA were maintained as a positive control. The mice were then euthanized, their BAL fluid collected, and their lungs examined histologically for evidence of inflammation and goblet cell metaplasia, a dominant pathologic signature of Th2-polarized mucosal inflammation. […] The extent of the cellularity and goblet cell responses of the LTE4-treated animals approached the levels of these parameters in the mice treated with 1% OVA.
Male BALB/c mice (6-8 weeks old) received intraperitoneal injections of reagent-grade chicken egg ovalbumin (OVA) (10 μg) precipitated with aluminum hydroxide ([…]) on days 0 and 7. […] Twelve hours after each dose, the mice were exposed to an aerosol of 0.1% OVA for 30 min delivered by an ultrasonic nebulizer. […] The mice were euthanized 24 hours after their third and final aerosol challenge. In some experiments, the mice received clopidogrel (500 μg/ml) in drinking water for 3 days before receiving the first intranasal dose of LTs. The treatment was continued throughout the procedure.
15 bronchovascular bundles of each mouse were evaluated.

human P2Y12 = human P2Y12 (Homo sapiens, UniProt Q9H244); assay: Binding of [P^33]2-MesADP and [H^3]LTE4 to membranes of COS-7 cells transfected with the human P2Y12 construct; set-up: polyhistidine (HIS) tag (C); expressed in transfected cells; host or cells: COS-7 cells, transient; conditions: COS-7 membranes, forward P2Y12 construct
Method: FIG. 10. Competitive ligand binding assays. 10A. […] Specific binding (typically 50-75% of the total) was calculated by subtracting the amount of radiolabel that was insensitive to the selective P2Y12 receptor antagonist 2-MesAMP. Nonspecific binding was essentially identical in the membranes with and without P2Y12 receptor knockdown. The dose response for the LAD2 membranes are from a single experiment repeated four times with similar results. The binding on the LAD2 cells with P2Y12 knocked down was repeated twice. 10B. Specific binding of radiolabeled ADP (2000 nM) to membranes of LAD2 cells. […] Results are mean±SD from three separate experiments. 10C. Conversion of radiolabeled LTD4 to LTE4 as confirmed by HPLC (left). […] Results in a second experiment were similar 10D. Competitive binding of radiolabeled 2-MesADP to COS-7 cells transfected with the human P2Y12 construct.
Competitive radioligand binding assays were performed using [H^3]ADP (the known natural ligand of P2Y12 receptors) and unlabeled LTs as competitors. […] The membranes from the transfectants expressing the forward construct bound [P^33]2-MesADP, a selective P2Y12 receptor agonist.

LAD2 cells = assay: MIP-1β generation by LAD2 cells (ELISA); assay type: cell-based, human
Method: FIG. 2. Requirement for P2Y12 receptors in LTE4-mediated LAD2 cell activation. 2A. Calcium flux of LAD2 cells stimulated with the indicated agonists (500 nM) in the presence or absence of the P2Y12 receptor-selective antagonist 2-MeSAMP (100 μM). […] 2B. […] Cells sensitized overnight with IgE and challenged with anti-IgE were used as the positive control. 2C. […] Results in 2B and 2C are mean±SEM from three independent experiments each. 2D. Effect of shRNA-mediated knockdown of P2Y12 receptor mRNA expression by LAD2 cells.
FIG. 9. Effect of apyrase treatment on LT-mediated activation of LAD2 cells. 9A. […] Concentrations of MIP-1β were measured by ELISA. 9B. […] Lysates were resolved by SDS-PAGE and probed with the indicated antibodies against phospho- and total ERK. Results in 9A are the mean±½ range from two experiments, while 9B is representative of two experiments.
Pre-treatment of the LAD2 cells with 2-MesAMP blocked the LTE4-mediated increment in MIP-1β production by >50% (FIG. 2B). […] To exclude potential off-target effects of the inhibitors, samples of LAD2 cells were transfected with lentiviruses encoding a P2Y12 sequence-specific shRNA, a CysLT1R-specific shRNA, or an empty vector control before stimulation. […] LTE4- and LTD4-dependent production of PGD2 were abrogated by the knockdowns of P2Y12 and CysLT1R, respectively (FIG. 2C, bottom). Neither GPCR knockdown altered MIP-1β generation or PGD2 production in response to IgE-anti-IgE (FIG. 2C). LTE4-mediated MIP-1β generation (FIG. 9A) and ERK activation (FIG. 9B) were not altered by treatment of LAD2 cells with apyrase to degrade extracellular ADP.
The concentration of MIP-1β was measured by an ELISA (ENDOGEN®). PGD2 was quantitated by a PGD2-methoxylamine hydrochloride (PGD2-MOX) assay.

[1] = tested on: CHO cells expressing CysLT1R, CysLT2R, or P2Y12 receptors; assay: Calcium flux in Fura-2-AM-loaded CHO transfectants; assay type: cell-based, human; conditions: LTE4 500 nM, ADP 100 μM; ADP response reflects endogenous P2Y receptors

Sequence of human P2Y12 (Q9H244 whole entry): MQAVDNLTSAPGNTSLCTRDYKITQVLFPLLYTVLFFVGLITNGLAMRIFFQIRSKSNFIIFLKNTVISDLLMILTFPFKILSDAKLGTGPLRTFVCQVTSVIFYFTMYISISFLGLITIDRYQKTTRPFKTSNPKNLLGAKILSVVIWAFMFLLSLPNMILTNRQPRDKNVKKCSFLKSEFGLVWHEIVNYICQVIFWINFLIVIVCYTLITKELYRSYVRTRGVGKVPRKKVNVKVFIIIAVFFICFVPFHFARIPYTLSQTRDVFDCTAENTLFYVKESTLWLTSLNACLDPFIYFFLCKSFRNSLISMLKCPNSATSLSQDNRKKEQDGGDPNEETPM

competition for [P^33]2-MesADP binding (human P2Y12) | binding of [H^3]LTE4 to membranes (human P2Y12) | Compound | BAL fluid eosinophilia (BALB/c mice) | bronchovascular inflammation (BALB/c mice) | goblet cell metaplasia (BALB/c mice) | MIP-1β generation (LAD2 cells; LTE4 100 and 500 nM, 6 h) | calcium flux [1] | effect on MIP-1β response to LTD4 and LTE4 (LAD2 cells; 2-MesAMP 100 μM, MK571 1 μM)
not competed |  | CCCCC/C=C\C\C=C/C=C/C=C/[C@@H](SC[C@H](N)C(=O)NCC(=O)O)[C@@H](O)CCCC(=O)O [LTD4] | did not increase | tended to slightly potentiate | tended to slightly potentiate |  |  | 
not competed | failed to bind | CCCCC/C=C\C\C=C/C=C/C=C/[C@@H](SC[C@H](N)C(=O)O)[C@@H](O)CCCC(=O)O [LTE4] | significantly enhanced | significantly enhanced | significantly enhanced | induced the generation of large amounts of MIP-1β | failed to flux calcium | 
 |  | CN(C)C(=O)CCSC(SCCC(=O)O)c1cccc(/C=C/c2ccc3ccc(Cl)cc3n2)c1 (stereo not drawn) [MK571] |  |  |  |  |  | suppressed the response to both ligands
